For data set [1], the system named is blood brain barrier. In words: Blood brain barrier permeability with Fluoro-gold in PBA-treated HFD-fed mice. Format: in vivo. Conditions: HFD-fed wt male mice; PBA 12 days; Fluoro-gold IP 15 mg/kg. The protocol:
Leptin resistance in obesity arises due to both impairment of leptin action in the hypothalamus and defects in the transport of leptin in the blood brain barrier^14,42. […] Three days after the injections, mice were anesthetized and perfused with saline and then 4% paraformaldehyde. After the fixation, brains were removed. Following the necessary further fixation and sectioning, Fluoro-gold staining was performed on the whole brain slices. […] Reactivity against the Fluoro-gold is not different between the vehicle and PBA-treated groups. Fluoro-gold-labeled neurons should be present in the areas like ventro-medial hypothalamus (VMH), dorso-medial hypothalamus (DMH) and lateral hypothalamic area (LHA), if the BBB permeability is perturbed. […] (data not shown)

In data set [2] the test system is LepRB signaling (LepRB, Jak2, Stat3). In words: Leptin receptor signaling in LepRB-expressing 293 cells under tunicamycin-induced ER stress. It is filed as cell-based, Human. The following applies: tunicamycin 3 μg/ml (or DMSO) 4 hours, then leptin 100 ng/ml 45 minutes. From the text: The leptin receptor belongs to the interleukin 6 (IL-6) receptor family of class I cytokine receptors^30. […] Binding of leptin to LepRb initiates a conformational change that leads to trans-autophosphorylation and activation of LepRb-associated Jak2^31,32 Activated Jak2 then phosphorylates the tyrosine residues within the LepRb/Jak2 complex to mediate downstream signaling. […] To examine whether UPR might alter the leptin signaling, LepRB-expressing 293 cells were first exposed to tunicamycin (3 μg/ml) to activate ER stress for a period of 4 hours and then treated with leptin (100 ng/ml) for 45 minutes. […] Finally, as a downstream element, leptin-stimulated Stat3 activation was analyzed.

Data set [3] deals with Stat3 Tyr705 phosphorylation. In words: Leptin-stimulated Stat3 Tyr705 phosphorylation in hypothalamus of wt lean and ob/ob mice. It is filed as in vivo. Conditions: leptin 0.1 mg/kg IP, six hour fasting, 30 minutes. The protocol: Nine-week old lean wt and ob/ob mice were orally treated with either PBA (1 g/kg/day) or vehicle (VEH) for 26 days and PERK (Thr980) phosphorylation is examined in the hypothalamus extracts with direct immunoblotting. (B) Ten week-old wt lean and ob/ob mice were intraperitoneally injected with leptin (0.1 mg/kg) after six-hour starvation. Hypothalami were removed 30 minutes after the injections, and pStat3^Tyr705 and total Stat3 levels were examined. (C) Nine-week old lean wt and ob/ob mice were orally treated with PBA (1 g/kg/day) for 10 days. Following the pretreatment period, leptin-deficient ob/ob mice were either administered with VEH or with different doses of leptin through the intraperitoneal route. The effect of VEH or PBA administration on (C) bodyweight (g), (D) percent decrease in bodyweight and (E) 24-hour food intake (n=3 for VEH and n=4 PBA-treated group). Effect of 5 mg/kg/day leptin administration on (F) bodyweight, (G) percent decrease in bodyweight and (H) 24-hour food intake in VEH- or PBA-treated ob/ob mice (n=3 for VEH and n=4 PBA-treated group). Analysis of the same parameters (body weight, percent decrease in bodyweight and 24-hour food intake) in (I, J, K) 1 mg/kg/day and (L, M, N) 0.1 mg/kg/day leptin-treated mice (n=3 for VEH and n=4 PBA-treated group). Data presented as means±SEM (*p<0.05, **p<0.01, ***p<0.001). […]

The test system of data set [4] is HFD-fed obese C57BL/6 mice. In words: PBA pretreatment and leptin in HFD-fed obese mice (bodyweight, metabolic cage, DEXA). It is filed as in vivo. The protocol:
C57BL/6 mice that were kept on high fat diet feeding for 25 weeks were either treated with vehicle or PBA (1 g/kg/day) for 10 days. Following the pretreatment period mice were given daily leptin (5 mg/kg/day, IP) treatment. (a) Bodyweight (g), (b) % decrease in the bodyweight, and (c) 24 hour food intake (g) during the 30 days of leptin administration. Metabolic cage analysis was performed after 25 days of treatment (d) O2 consumption (ml/kg/hr), (e) CO2 production (ml/kg/hr), (f) X-axis ambulatory activity, (g) Respiratory exchange ratio (VCO2/VO2), (h) Heat generation (kcal/hr). Dexa scan analysis of (i) Lean body mass (g), (j) Fat % and (k) Total fat amount (g). C57BL6 mice were fed a HFD for a period of 25 weeks and then either treated with PBA (1 g/kg) or VEH for 16 days. (1) PERK phosphorylation in the hypothalamus extracts. (m) Leptin-stimulated Stat3^Tyr705 phosphorylation in the VEH and PBA-treated HFD-fed mice. (n) C57BL6 mice were fed a ND for a period of 25 weeks and then either treated with PBA (1 g/kg) or VEH for 16 days. Following the treatment period mice were starved for six hours and subsequently injected with leptin (IP, 1 mg/kg). Stat3^Tyr705 phoshorylation and total Stat levels were examined in the hypothalamus extracts. (n=6 in each group). Error bars are ±S.E.M., P values are determined by Student's t-test. (*p<0.05, **p<0.01, ***p<0.001)
Obesity owing to a high fat diet is fundamentally different from that seen in ob/ob mice in that it occurs in the face of high leptin levels. To determine whether PBA also sensitizes HFD-fed obese mice to leptin, mice that were kept on HFD for 25 weeks were pretreated with vehicle or PBA for 10 days, and then given leptin treatment (5 mg/kg/day). Leptin administration to the vehicle-treated group led to an acute weight loss, which was rapidly regained (FIG. 3a). By the end of treatment period, leptin created a slight but significant change in the body weight in the vehicle-treated group by reducing it from 42.42±0.27 g to 40.78±0.55 (3.8±0.9% decrease in bodyweight) (FIG. 3a,b). […] During the course of the experiment we placed the vehicle and PBA-treated groups in metabolic cages to investigate metabolic homeostasis in detail. […] Following the metabolic cage analysis we performed DEXA scan to analyze whole body fat content.

Where [5] appears, read: mice on HFD 25 weeks, leptin 5 mg/kg/day IP, 30 days, vehicle or PBA (1 g/kg/day) pretreated.

For `O=C(O)CCCc1ccccc1` [PBA, 4-phenyl butyric acid], the “BBB permeability (Fluoro-gold-labeled neurons in VMH, DMH, LHA)” value in data set [1] is listed as “not increased”.
As to “leptin: adipocyte-derived hormone that suppresses appetite”, in data set [2], the “leptin-induced Stat3 phosphorylation (Tyr705)” value is given as “significant increase” and the “leptin-stimulated LepRB tyrosine phosphorylation” value is listed as “marked increase”. Besides, the “Stat3 Tyr705 phosphorylation in the hypothalamus” value in data set [3] (ob/ob mice) is “completely absent”. The “Stat3 Tyr705 phosphorylation in the hypothalamus” value in data set [3] (wt lean mice) was “responded well”. For the same compound, the lean mass result in data set [4] (HFD-fed mice, DEXA scan) is reported as “does not change”. Moreover, the initial body weight in data set [4] (mice on HFD 25 weeks, before leptin 5 mg/kg/day, vehicle or PBA pretreated 10 days) was 42.42 ± 0.27 g. In data set [4] (setting [5]), the “body weight at end of treatment period” value stood at 40.78 ± 0.55 g and the decrease in bodyweight is reported as 3.8±0.9%.
